Experimental data from US6043279A, “Compounds having selective activity for retinoid X receptors, and means for modulation of processes mediated by retinoid X receptors” (priority 1997, dated 2000).

Tests used:
[1] = test system: myeloma cell line (RPMI 8226); assay: thymidine incorporation assay in myeloma cell line RPMI 8226; type: cell-based; settings: RPMI 8226 myeloma cells, FIG. 11
Text: This assay examines the incorporation of radiolabeled thymidine into DNA, and by determining the ability of a compound to inhibit thymidine incorporation into DNA, provides a measure of cell proliferation.

Rhino mice = assay: comedolytic test on Rhino mice; type: in vivo
RAR = assay: apoA1 "A" site reporter co-transfection in HepG-2 cells with RAR; type: cell-based
Text: (§1) This work focused on studying the transcriptional properties of the retinoid receptors RAR and RXR on a reporter molecule (e.g., luciferase) under control of a basal promoter containing the RXR response element from the apoA1 gene ("A" site). Plasmid constructs coding for the various receptors were transfected into a human hepatocyte cell line (HepG-2) along with the reporter plasmid. […] Widom et al., Mol. Cell. […] After transfection, treatment, harvest, and assay, the data obtained was normalized to transfected beta-galactosidase activity so as to control for transfection efficiency.

RXR = assay: apoA1 "A" site reporter co-transfection in HepG-2 cells with RXR; type: cell-based
Text: as §1

HL60 = assay: thymidine incorporation assay in HL60 cells; type: cell-based
[2] = test system: ME180, a squamous cell carcinoma; assay: growth of ME180 tumor cells (cell number); type: cell-based, human
Text: (§2) The effects on growth of these cells were monitored by evaluation of cell number, and also by evaluation of growth in semi-solid medium for the RPMI18226 cell line. […] The therapeutic index is defined as the ratio of efficacy to toxicity of a compound.

[3] = rats
Protocol: Male Sprague-Dawley rats (160-200 gram) were obtained from Harlan. Animals were fed standard laboratory diets (Harlan/Teklad) and kept in an environmentally controlled animal house with a light period lasting from 6 a.m. to 6 p.m. Animals were treated with drugs prepared as suspensions in olive oil.
Plasma was separated and stored at 4° C. for evaluation of plasma total cholesterol and high density lipoprotein cholesterol (HDL-cholesterol).
Plasma total cholesterol was measured enzymatically utilizing Boeringer Mannheim Diagnostics High Performance Cholesterol Methods with an ABBOTT VP Bichromatic Analyzer. HDL cholesterol was measured after preparation of the HDL-containing fraction by heparin-manganese precipitation of plasma. HDL-cholesterol in this fraction was estimated as mentioned earlier. All HDL separations were checked for contamination by other lipoproteins with agarose gel electrophoresis.
Serum samples were taken and analyzed by Western Blot using antisera specific to rat apoA1.

[4] = test system: RPMI18226, a multiple myeloma; assay: growth of RPMI18226 tumor cells (cell number, semi-solid medium); type: cell-based, human; settings: cell number and growth in semi-solid medium
Text: as §2

RXRβ = molecular target: T1, RXRβ (Mus musculus, UniProt P28704); assay: co-transfection (cis-trans) assay in CV-1 cells, RXRβ; type: cell-based; settings: CV-1, read-out: Efficacy RXRβ
T1 construct: expressed in transfected cells; host or cells: CV-1 (monkey kidney)
T1 sequence (P28704 1-520): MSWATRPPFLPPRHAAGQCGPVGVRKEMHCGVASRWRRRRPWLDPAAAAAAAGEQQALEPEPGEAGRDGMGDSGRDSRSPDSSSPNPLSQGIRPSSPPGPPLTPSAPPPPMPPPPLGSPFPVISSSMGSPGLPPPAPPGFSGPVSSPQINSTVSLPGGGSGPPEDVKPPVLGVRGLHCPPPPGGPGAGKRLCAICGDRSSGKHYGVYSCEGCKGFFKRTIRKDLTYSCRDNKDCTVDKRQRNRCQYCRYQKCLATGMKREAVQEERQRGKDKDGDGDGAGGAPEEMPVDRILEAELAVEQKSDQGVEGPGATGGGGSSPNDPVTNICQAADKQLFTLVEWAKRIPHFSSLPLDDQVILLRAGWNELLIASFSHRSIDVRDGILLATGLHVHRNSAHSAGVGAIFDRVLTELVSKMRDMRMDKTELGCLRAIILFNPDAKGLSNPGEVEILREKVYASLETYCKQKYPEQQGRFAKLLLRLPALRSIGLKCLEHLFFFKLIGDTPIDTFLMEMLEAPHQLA
Text: The co-transfection assay provides a mechanism to evaluate the ability of a compound to modulate the transcription response initiated by an intracellular receptor. […] Berger et al., J. Steroid Biochem. Molec.
Briefly, the co-transfection assay involves the introduction of two plasmids by transient transfection into a retinoid receptor-negative mammalian cell background. The first plasmid contains a retinoid receptor cDNA and directs constitutive expression of the encoded receptor. The second plasmid contains a cDNA that encodes for a readily quantifiable protein, e.g., firefly luciferase or chloramphenicol acetyl transferase (CAT), under control of a promoter containing a retinoid acid response element, which confers retinoid dependence on the transcription of the reporter. In this co-transfection assay, all retinoid receptors respond to all-trans-retinoic acid in a similar fashion. This assay can be used to accurately measure efficacy and potency of retinoic acid and synthetic retinoids as ligands that interact with the individual retinoid receptor subtypes.
Accordingly, synthetic retinoid compounds of the current invention were evaluated for their interaction with retinoid receptor subtypes using the co-transfection assay in which CV-1 cells were co-transfected with one of the retinoid receptor subtypes, a reporter construct, and an internal control to allow normalization of the response for transfection efficiency. The following example is illustrative.
Retinoids: All-trans-retinoic acid (RA) and 13-cis-retinoic acid (13-cis-RA) were obtained from Sigma. […] Retinoids were dissolved in dimethylsulfoxide for use in the transcriptional activation assays.
Co-transfection Assay In CV-1 Cells: A monkey kidney cell line, CV-1, was used in the cis-trans assay. Cells were transfected with two plasmids. […] The cis-vector contains an easily assayable gene product, in this case the firefly luciferase, coupled to a retinoid-responsive promoter, i.e., an RARE or RXRE. Addition of retinoic acid or an appropriate synthetic retinoid results in the formation of a retinoid-RAR or -RXR complex that activates the expression of luciferase gene, causing light to be emitted from cell extracts. The level of luciferase activity is directly proportional to the effectiveness of the retinoid-receptor complex in activating gene expression. This sensitive and reproducible co-transfection approach permits the identification of retinoids that interact with the different receptor isoforms.
Cells were cultured in DMEM supplemented with 10% charcoal resin-stripped fetal bovine serum, and experiments were conducted in 96-well plates. […] Cells were transfected for 6 h and then washed to remove the precipitate. The cells were then incubated for 36 h with or without retinoid. After the transfection, all subsequent steps were performed on a Beckman Biomek Automated Workstation. […] All determinations were performed in triplicate in two independent experiments and were normalized for transfection efficiency by using β-galactosidase as the internal control. […] Efficacy values less than 5% are not statistically different than the 0% background.

RXRα/PPAR = molecular target: T2, RXRα/PPAR (UniProt P19793+P23204); assay: co-transfection of RXRα and PPAR into HepG2 cells, target reporter gene; type: cell-based; settings: HepG2, read-out: Normalized Response (%)
T2 construct: expressed in transfected cells; host or cells: HepG2
T2 sequence (P23204 whole entry): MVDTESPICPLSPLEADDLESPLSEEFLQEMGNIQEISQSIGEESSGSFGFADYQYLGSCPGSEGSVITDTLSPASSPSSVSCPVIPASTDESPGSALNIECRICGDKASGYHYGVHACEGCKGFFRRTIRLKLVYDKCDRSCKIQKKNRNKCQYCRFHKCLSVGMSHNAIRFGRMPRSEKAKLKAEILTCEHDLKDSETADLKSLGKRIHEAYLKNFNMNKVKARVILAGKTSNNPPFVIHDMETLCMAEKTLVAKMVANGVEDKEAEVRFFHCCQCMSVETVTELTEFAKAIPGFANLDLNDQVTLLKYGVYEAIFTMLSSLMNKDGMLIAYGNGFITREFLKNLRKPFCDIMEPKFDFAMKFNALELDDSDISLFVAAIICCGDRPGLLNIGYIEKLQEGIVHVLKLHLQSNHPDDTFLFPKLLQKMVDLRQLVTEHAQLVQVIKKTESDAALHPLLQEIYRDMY
T2 sequence (P19793 whole entry): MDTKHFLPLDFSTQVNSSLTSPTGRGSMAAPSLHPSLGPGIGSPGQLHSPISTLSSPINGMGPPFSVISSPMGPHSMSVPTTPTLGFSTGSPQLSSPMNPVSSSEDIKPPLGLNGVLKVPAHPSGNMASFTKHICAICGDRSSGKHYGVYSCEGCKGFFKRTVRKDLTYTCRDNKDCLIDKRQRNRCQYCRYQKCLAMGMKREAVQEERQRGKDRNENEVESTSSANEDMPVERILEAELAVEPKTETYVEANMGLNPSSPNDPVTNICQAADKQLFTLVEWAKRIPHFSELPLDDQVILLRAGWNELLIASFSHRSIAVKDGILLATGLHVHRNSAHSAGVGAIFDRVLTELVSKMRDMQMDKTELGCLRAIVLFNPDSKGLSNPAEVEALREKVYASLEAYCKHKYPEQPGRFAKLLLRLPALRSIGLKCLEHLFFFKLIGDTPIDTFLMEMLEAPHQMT
Text: Specifically, peroxisome proliferator-activated receptor (PPAR) is a member of the intracellular receptor super family that plays a role in the modulation of lipid homeostasis. […] These agents, called peroxisome proliferators, have been used in man as hypolipidemic agents.

C/C(=C\c1ccc(C(=O)O)cc1)c1ccc2c(c1)C(C)(C)CCC2(C)C [TTNPB]
concentrations providing essentially no effect on cell proliferation [1]: less than 10^-11 M

Cc1cc2c(cc1C(=O)c1ccc(C(=O)O)cc1)C(C)(C)CCC2(C)C [3-methyl-TTNCB, 4-[(3,5,5,8,8-pentamethyl-5,6,7,8-tetrahydro-2-naphthyl)carbonyl]benzoic acid]
inhibition of utriculi diameter (Rhino mice; 0.1% solution, topical, Rhino mice, FIG. 9): approximately 50% | irritation to the skin of Rhino mice (Rhino mice; compared with 9-cis- or all-trans-retinoic acid): less irritating to the skin of Rhino mice than 9-cis- or all-trans-retinoic acid | effect on apoA1 "A" site reporter with RAR (RAR): no effect | activation of apoA1 "A" site reporter with RXR (RXR): activation in the system

CC1=C(/C=C/C(C)=C/C=C/C(C)=C/C(=O)O)C(C)(C)CCC1 [all-trans-retinoic acid, All-trans-retinoic acid]
cellular proliferation (thymidine incorporation) (HL60): inhibits thymidine incorporation

C=C(c1ccc(C(=O)O)cc1)c1cc2c(cc1C)C(C)(C)CCC2(C)C [3-methyl-TTNEB, 4-[1-(3,5,5,8,8-pentamethyl-5,6,7,8-tetrahydro-2-naphthyl)ethenyl]benzoic acid]
cell growth [2]: inhibit cell growth in a concentration-dependent manner | total cholesterol ([3]; 4 days): an increase due to the increase of the HDL-cholesterol fraction | plasma HDL-cholesterol at the lowest dose ([3]; 4 days, 0.3 mg/kg i.p.): significant increases | circulating apoA1 levels ([3]; orally 3 mg/kg daily for four days, Western Blot of serum): significant increase in circulating apoA1 levels | cell growth [4]: inhibit cell growth in a concentration-dependent manner

CC1=C(/C=C/C(C)=C\C=C\C(C)=C\C(=O)O)C(C)(C)CCC1 [9-cis-retinoic acid, reference compound]
Emax (RXRβ): 140%

CC(C)(Oc1ccc(Cl)cc1)C(=O)O [clofibric Acid, clofibric acid]
Emax (RXRα/PPAR): 100%
